Structures can show the parent of a compound that is named as a salt. Where two headings read alike, the source gives them in different places.
Legend:
[1] = biological target: PARP-1 enzyme (Cricetulus griseus (Chinese hamster) (Cricetulus barabensis griseus), UniProt Q9R152); test: Intracellular PARP inhibitory activity (NAD(P)H released by MMS-treated CHO-K1 cells); assay type: cell-based
Method: In order to verify the ability of the compounds of the present invention to inhibit the PARP-1 enzyme activity, the amount of NAD(P)H accumulated on cell culture medium was measured.
The Chinese hamster ovary cells (CHO-K1) were cultured in RPMI1640 culture medium containing 10% fetal bovine serum (FBS). The cultured CHO-K1 cells were seeded into 96 well plate by 2.9×10^3 cells/well, and cultured for 16 hours under culture condition of 37° C., 5% CO2. After the culture, the cells were treated with the compounds of the Examples at varying concentrations, and cultured at 37° C. for 2 hours. […] The amount of […] released to the culture medium 3, 4, 5 hours after the treatment with MMS was quantified at 450 nm using Wallac EnVision™ (PerkinElmer Oy, Turku, Finland). The transference numbers of the compounds at varying concentrations according to the present invention are the average values obtained from four wells, and the results were calculated using regression analysis.
The Chinese hamster ovary cells (CHO-K1) were treated with the compounds at varying concentration according to the present invention, and the amount of NAD(P)H released into the culture medium 4 hours after the MMS treatment was quantified.

[2] = biological target: PARP-1 enzyme (Homo sapiens (Human), UniProt P09874); test: Poly(ADP-ribose)polymerase [PARP-1] enzyme inhibitory activity (Trevigen PARP Assay kit); assay type: biochemical; settings: read-out: PARP-1 Inhibitory activity IC50
PARP-1 enzyme (Homo sapiens (Human), UniProt P09874), sequence (P09874 whole entry): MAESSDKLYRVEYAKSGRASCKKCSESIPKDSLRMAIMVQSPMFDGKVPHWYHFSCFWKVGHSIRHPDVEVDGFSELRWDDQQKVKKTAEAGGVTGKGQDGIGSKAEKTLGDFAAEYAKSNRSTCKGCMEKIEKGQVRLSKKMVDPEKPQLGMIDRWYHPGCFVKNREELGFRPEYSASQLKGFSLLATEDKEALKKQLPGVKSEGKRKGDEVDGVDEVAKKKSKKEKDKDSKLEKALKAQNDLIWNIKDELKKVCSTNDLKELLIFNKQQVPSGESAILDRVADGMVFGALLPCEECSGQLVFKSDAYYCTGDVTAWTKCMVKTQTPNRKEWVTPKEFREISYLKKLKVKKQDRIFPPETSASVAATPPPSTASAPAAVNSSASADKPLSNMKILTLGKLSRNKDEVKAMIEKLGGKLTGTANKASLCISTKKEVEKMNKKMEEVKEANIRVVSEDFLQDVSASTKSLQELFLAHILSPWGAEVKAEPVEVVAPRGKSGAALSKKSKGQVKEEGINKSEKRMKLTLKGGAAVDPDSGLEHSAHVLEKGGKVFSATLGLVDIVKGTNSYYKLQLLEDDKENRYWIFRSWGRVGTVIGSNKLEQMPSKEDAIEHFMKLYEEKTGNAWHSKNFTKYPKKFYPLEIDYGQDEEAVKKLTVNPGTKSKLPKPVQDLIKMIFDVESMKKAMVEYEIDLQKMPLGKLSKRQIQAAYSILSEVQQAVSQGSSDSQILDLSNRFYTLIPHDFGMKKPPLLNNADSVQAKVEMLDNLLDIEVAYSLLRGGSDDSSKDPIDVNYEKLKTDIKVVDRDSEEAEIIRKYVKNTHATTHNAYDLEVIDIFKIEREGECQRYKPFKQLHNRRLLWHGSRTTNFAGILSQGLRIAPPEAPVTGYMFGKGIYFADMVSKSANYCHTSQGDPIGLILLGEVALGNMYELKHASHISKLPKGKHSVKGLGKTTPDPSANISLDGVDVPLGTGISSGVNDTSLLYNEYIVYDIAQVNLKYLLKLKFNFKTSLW
Method: The activity of the compounds according to the present invention to inhibit the PARP-1 enzyme was examined using a PARP Assay kit (4671-096-K) purchased from Trevigen. The assay was performed following a modified previously reported method by Lee et al [Methods Find, Exp. Clin. Pharmacol., 27, 617-622, 2005].
Histone was coated on 384-well plate, which is a small volume PS plate (784101) of Greiner Bio-One, and left at 25° C. for 2 hours. After that, the plate was rinsed four times with PBS (7.5 mM Na2HPO4, 2.5 mM NaH2PO4, 145 mM NaCl, pH 7.4), and in order to prevent non-specific reaction, the Strep-diluent (provided from kit of Trevigen) was added and left at 25° C. for one hour. After one hour, the plate was again rinsed with PBS four times, and the compounds of the Examples in various concentrations were put into reactant containing PARP-1 enzyme (0.12 unit/well), 2×PARP cocktail (1.95 mM NAD^+, 50 uM biotinylated NAD^+, and activated DNA in 50 mM Tris pH 8.0, 25 mM MgCl2) and allowed to react at 25° C. for 30 minutes. After 30 minutes, each well was rinsed with PBS four times, and in order to measure the amount of rybosylation by the PARP enzyme, strepavidin-linked peroxidase (Strep-HRP, 1:1000 diluted) was added and allowed to react at 37° C. for 30 minutes. The plate was rinsed with PBS four times, and TACS-Sapphire substrate was put and allowed to react at 25° C. for 10 minutes so that color reaction occurred. Finally, the reaction was terminated by the addition of 0.2 N HCl. The amount of histone ribosylation formed by PARP-1 enzyme was quantified at 450 nm using Wallac EnVision™ (PerkinElmer Oy, Turku, Finland).

[3] = PARP-1 enzyme, histone ribosylation, 450 nm

PARP-1 enzyme (Cricetulus griseus (Chinese hamster) (Cricetulus barabensis griseus), UniProt Q9R152), sequence (Q9R152 whole entry): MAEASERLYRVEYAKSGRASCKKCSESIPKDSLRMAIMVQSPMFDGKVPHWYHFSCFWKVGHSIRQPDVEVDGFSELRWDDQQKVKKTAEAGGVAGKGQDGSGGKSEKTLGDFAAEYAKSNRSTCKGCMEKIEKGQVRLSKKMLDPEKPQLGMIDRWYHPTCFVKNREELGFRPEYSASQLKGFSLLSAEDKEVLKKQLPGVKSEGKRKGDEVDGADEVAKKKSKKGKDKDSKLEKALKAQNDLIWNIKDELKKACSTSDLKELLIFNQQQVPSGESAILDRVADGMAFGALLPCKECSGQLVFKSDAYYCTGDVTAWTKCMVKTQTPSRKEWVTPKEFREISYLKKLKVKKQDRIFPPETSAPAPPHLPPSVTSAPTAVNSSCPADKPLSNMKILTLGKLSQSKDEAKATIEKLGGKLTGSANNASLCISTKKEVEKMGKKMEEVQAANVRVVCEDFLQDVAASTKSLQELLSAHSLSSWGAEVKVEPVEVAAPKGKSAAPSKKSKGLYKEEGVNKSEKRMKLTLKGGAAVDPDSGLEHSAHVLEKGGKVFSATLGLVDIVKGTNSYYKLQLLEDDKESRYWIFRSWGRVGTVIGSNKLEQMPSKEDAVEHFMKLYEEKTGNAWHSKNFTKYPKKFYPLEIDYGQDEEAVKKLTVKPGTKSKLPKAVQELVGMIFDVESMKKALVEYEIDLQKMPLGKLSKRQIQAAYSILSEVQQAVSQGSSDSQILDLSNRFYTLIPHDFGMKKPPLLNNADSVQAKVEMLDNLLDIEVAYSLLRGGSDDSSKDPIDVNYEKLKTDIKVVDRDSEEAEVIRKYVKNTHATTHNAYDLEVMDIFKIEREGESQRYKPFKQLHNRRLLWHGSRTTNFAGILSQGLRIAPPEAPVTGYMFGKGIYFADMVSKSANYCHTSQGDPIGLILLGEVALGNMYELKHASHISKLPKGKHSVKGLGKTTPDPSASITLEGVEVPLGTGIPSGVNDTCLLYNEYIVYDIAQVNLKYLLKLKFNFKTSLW

SMILES | IC50 [1] [nM] | IC50 [2, 3] [nM] | IC50 [2] [nM] | other results
O=c1[nH]c2ccc(OCCN3CCCCC3)cc2c2c1CCCN2 [Example 17, 9-[2-(Piperidine-1yl)ethoxy]-1,2,3,4-tetrahydrobenzo[h][1,6]naphthyridine-5(6H)-one dihydrochloride] | 1630 | < 1000 | 460 | 
COCCOc1ccc2[nH]c(=O)c3c(c2c1)NCCC3 [Example 18, 9-(2-Methoxyethoxy)-1,2,3,4-tetrahydrobenzo[h][1,6]naphthyridine-5(6H)-one hydrochloride] | 3710 | 1520 |  | 
CCOc1ccc2[nH]c(=O)c3c(c2c1)NCCC3 [Example 20, 9-Ethoxy-1,2,3,4-tetrahydrobenzo[h][1,6]naphthyridine-5(6H)-one hydrochloride] | 1300 | 1540 |  | 
CN(C)CCc1ccc2c3c(c(=O)[nH]c2c1)CCCN3 [Example 32, 8-[2-(Dimethylamino)ethyl]-1,2,3,4-tetrahydrobenzo[h][1,6]naphthyridine-5(6H)-one dihydrochloride] | 3160 | < 1000 | 230 | 
CN(C)c1ccc2c3c(c(=O)[nH]c2c1)CCCN3 [Example 37, 8-(Dimethylamino)-1,2,3,4-tetrahydrobenzo[h][1,6]naphthyridine-5(6H)-one hydrochloride] |  | > 4000 |  | IC50 ([1]; CHO-K1 cells, NAD(P)H released 4 hours after MMS treatment, read-out: PARP-1 Inhibitory activity IC50): 4860 nM
CC(c1ccc2c3c(c(=O)[nH]c2c1)CCCN3)N(C)C (stereo not shown) [Example 38, 8-[1-(Dimethylamino)ethyl]-1,2,3,4-tetrahydrobenzo[h][1,6]naphthyridine-5(6H)-one dihydrochloride] | 140 | < 1000 | 50 | 
CN(C)Cc1ccc2c3c(c(=O)[nH]c2c1)CCCN3 [Example 41, 8-[(Dimethylamino)methyl]-1,2,3,4-tetrahydrobenzo[h][1,6]naphthyridine-5(6H)-one dihydrochloride] | 50 |  | 40 | 
CCNCc1ccc2c3c(c(=O)[nH]c2c1)CCCN3 [Example 43, 8-[(Ethylamino)methyl]-1,2,3,4-tetrahydrobenzo[h][1,6]naphthyridine-5(6H)-one dihydrochloride] | 1770 |  | 160 | 
O=c1[nH]c2cc(CN3CCCC3)ccc2c2c1CCCN2 [Example 44, 8-(Pyrrolidine-1-ylmethyl)-1,2,3,4-tetrahydrobenzo[h][1,6]naphthyridine-5(6H)-one dihydrochloride] | 340 |  |  | IC50 ([2]; dihydrochloride): 60 nM
CCN(C)Cc1ccc2c3c(c(=O)[nH]c2c1)CCCN3 [Example 47, 8-{[Ethyl(methyl)amino]methyl}-1,2,3,4-tetrahydrobenzo[h][1,6]naphthyridine-5(6H)-one dihydrochloride] | 250 |  | 70 | 
O=c1[nH]c2cc(CN3CCCCC3)ccc2c2c1CCCN2 [Example 48, 8-(Piperidine-1-ylmethyl)-1,2,3,4-tetrahydrobenzo[h][1,6]naphthyridine-5(6H)-one dihydrochloride] | 430 |  | 130 | 
CN(CCO)Cc1ccc2c3c(c(=O)[nH]c2c1)CCCN3 [Example 53, 8-{[(2-Hydroxyethyl)(methyl)amino]methyl}-1,2,3,4-tetrahydrobenzo[h][1,6]naphthyridine-5(6H)-one dihydrochloride] | 290 |  | 50 | 
CCCN(C)Cc1ccc2c3c(c(=O)[nH]c2c1)CCCN3 [Example 56, 8-[(Methyl(propyl)amino)methyl]-1,2,3,4-tetrahydrobenzo[h][1,6]naphthyridine-5(6H)-one dihydrochloride] | 470 |  | 180 | 
CN(C)Cc1ccc2c3c(c(=O)[nH]c2c1)CCCN3C [Example 66, 8-[(Dimethylamino)methyl]-1-methyl-1,2,3,4-tetrahydrobenzo[h][1,6]naphthyridine-5(6H)-one dihydrochloride] | 320 | < 1000 | 90 | 
COc1cc(CN2CC(C)OC(C)C2)cc2[nH]c(=O)c3c(c12)NCCC3 (stereo not shown) [Example 90, 8-[(2,6-Dimethylmorpholino)methyl]-10-methoxy-1,2,3,4-tetrahydrobenzo[h][1,6]naphthyridine-5(6H)-one dihydrochloride] |  |  | 780 | 
COc1cc(CN(C)C2CCCC2)cc2[nH]c(=O)c3c(c12)NCCC3 [Example 92, 8-{[Cyclopentyl(methyl)amino]methyl}-10-methoxy-1,2,3,4-tetrahydrobenzo[h][1,6]naphthyridine-5(6H)-one dihydrochloride] |  |  | 190 | 
COc1cc(CN(C)C(C)C)cc2[nH]c(=O)c3c(c12)NCCC3 [Example 93, 8-{[Isopropyl(methyl)amino]methyl}-10-methoxy-1,2,3,4-tetrahydrobenzo[h][1,6]naphthyridine-5(6H)-one dihydrochloride] |  |  | 140 | 
COc1cc(CN(C)CCF)cc2[nH]c(=O)c3c(c12)NCCC3 [Example 94, 8-{[(2-Fluoroethyl)(methyl)amino]methyl}-10-methoxy-1,2,3,4-tetrahydrobenzo[h][1,6]naphthyridine-5(6H)-one dihydrochloride] |  |  | 170 | 
O=c1[nH]c2cc(Cc3nnn[nH]3)ccc2c2c1CCCN2 [Example 95, 8-[(1H-tetrazole-5-yl)methyl]-1,2,3,4-tetrahydrobenzo[h][1,6]naphthyridine-5(6H)-one hydrochloride] |  |  | 490 | 
COc1cc(CNN2CCOCC2)cc2[nH]c(=O)c3c(c12)NCCC3 [Example 96, 10-Methoxy-8-[(morpholinoamino)methyl]-1,2,3,4-tetrahydrobenzo[h][1,6]naphthyridine-5(6H)-one trihydrochloride] |  |  | 770 | 
COc1cc(CN(C)N2CCOCC2)cc2[nH]c(=O)c3c(c12)NCCC3 [Example 97, 10-Methoxy-8-{[methyl(morpholino)amino]methyl}-1,2,3,4-tetrahydrobenzo[h][1,6]naphthyridine-5(6H)-one trihydrochloride] |  |  | 900 | 
CCOc1cc(CN(C)C)cc2[nH]c(=O)c3c(c12)NCCC3 [Example 100, 8-[(Dimethylamino)methyl]-10-etoxy-1,2,3,4-tetrahydrobenzo[h][1,6]naphthyridine-5(6H)-one dihydrochloride] | 60 |  |  | 
CCOc1cc(CN2CCCCC2)cc2[nH]c(=O)c3c(c12)NCCC3 [Example 102, 10-Ethoxy-8-(piperidine-1-ylmethyl)-1,2,3,4-tetrahydrobenzo[h][1,6]naphthyridine-5(6H)-one dihydrochloride] |  |  | 180 | 
COc1cc(CO)cc2[nH]c(=O)c3c(c12)NCCC3 [Example 105, 8-(Hydroxymethyl)-10-methoxy-1,2,3,4-tetrahydrobenzo[h][1,6]naphthyridine-5(6H)-one hydrochloride] |  | 190 |  | 
COc1cc(CNCCN2CCOCC2)cc2[nH]c(=O)c3c(c12)NCCC3 [Example 107, 10-Methoxy-8-[(2-morpholinoethylamino)methyl)-1,2,3,4-tetrahydrobenzo[h][1,6]naphthyridine-5(6H)-one trihydrochloride] |  |  | 70 | 
NCc1ccc2c3c(c(=O)[nH]c2c1)CCCN3 [Example 112, 8-(Aminomethyl)-1,2,3,4-tetrahydrobenzo[h][1,6]naphthyridine-5 (6H)-one dihydrochloride] |  |  | 170 | 
COc1cc(CN(C)C2CCOCC2)cc2[nH]c(=O)c3c(c12)NCCC3 [Example 115, 10-Methoxy-8-{[methyl(tetrahydro-2H-pyran-4-yl)amino]methyl}-1,2,3,4-tetrahydrobenzo[h][1,6]naphthyridine-5(6H)-one dihydrochloride] |  |  | 410 | 
COCCOc1cc(CN(C)C)cc2[nH]c(=O)c3c(c12)NCCC3 [Example 116, 8-[(Dimethylamino)methyl]-10-(2-methoxyetoxy)-1,2,3,4-tetrahydrobenzo[h][1,6]naphthyridine-5(6H)-one dihydrochloride] |  | 180 |  | 
